Laboratory results taken from PMC5556071, “ATR inhibition facilitates targeting of leukemia dependence on convergent nucleotide biosynthetic pathways” (Nature Communications, 2017).
Where “and” joins values, the source holds several entries; their conditions need not be identical. Identical values can stand only once.

System: CEM cells
Assay: Non-targeted LC-MS metabolite profiling: percent [13C6]glucose labeling and relative metabolite levels
Assay type: cell-based, human
Conditions: CEM cells, 12 h following release from G1 arrest, replicates #1-#6
Description: To further investigate the functions of dCK and ATR at the G1/S transition in CEM cells, a non-targeted liquid chromatography mass spectrometry (LC-MS) assay was used to determine the utilization of labeled [^13C6]glucose and [^13C9,^15N3]deoxycytidine, the main substrates for de novo and salvage nucleotide biosynthesis, respectively. Of the 166 metabolites identified in CEM cells treated with VE-822 and/or dCKi, 105 metabolites found in all four treatment groups contained glucose-derived ^13C atoms. […] These metabolites included intermediates such as rUTP, rCTP and rCDP in the de novo dCTP biosynthesis (Fig. 1d). […] However, several deoxyribonucleotides, including dCTP, were below the limit of detection of the non-targeted LC-MS approach, raising the concern that the sensitivity of this assay is not sufficient to measure the contribution of the salvage pathway or the ratio of de novo and salvage biosynthesis to these pools. To address this problem, a newly developed targeted MS assay was developed (Fig. 1e and Supplementary Fig. 3). In this assay, samples containing either extracted dNTPs or hydrolyzed DNA from labeled cells are separated by LC for detection by a triple quadrupole mass spectrometer using multiple reaction monitoring (LC-MS/MS-MRM). The first (Q1) and third (Q3) quadrupoles function as mass filters, while the second (Q2) quadrupole serves as a collision chamber (Fig. 1e). For instance, to profile the biosynthetic composition of deoxycytidine (dC) derived from hydrolyzed DNA or dCTP, an intact, protonated dC ion is selected in Q1, followed by fragmentation of the glycosidic bond, which releases protonated cytosine in Q2, that is filtered in Q3 and detected to generate an ion chromatogram. The peak areas for the ion chromatograms of salvage [^13C9,^15N3]dC (red trace), de novo [^13C5]dC (black trace, from [^13C6]glucose) and unlabeled dC (gray trace) (Fig. 1e) are used to determine the relative contributions of the de novo and salvage routes both to dCTP pools and to DNA-incorporated dCTP.
Cells were transferred into RPMI-1640 without glucose and supplemented with 10% dialyzed FBS (Gibco) containing the following labeled substrates: precursors for de novo [U-^13C6]glucose (Sigma-Aldrich, 389374) at 11 mM; precursors for purine salvage [U-^13C10,^15N5]dA (Cambridge Isotopes, CIL 3896), [^15N5]dA (Cambridge Isotopes, NLM-3895) and [^15N5]dG (Cambridge Isotopes, NLM-3899) at 5 µM or as indicated; and precursors for pyrimidine salvage: [U-^13C9,^15N3]dC (Silantes, 124603602) and [U-^13C10,^15N2]dT (Cambridge Isotopes, CNLM-3902) at 5 µM and [^15N2]orotate (Cambridge Isotopes, NLM-1048) at indicated concentrations. The cells were incubated for 12 h or as indicated before sample collection and processing. […]
Non-targeted LC-MS metabolic assays. 1 x 10^6 cells were washed with ice-cold 150 mM ammonium acetate twice before adding 1 mL of ice-cold 80% methanol with 10 nM norvaline as an internal standard. After vigorous vortexing, samples were centrifuged at maximum speed, the aqueous layer was transferred to a glass vial and the metabolites were dried under vacuum. Metabolites were resuspended in 50 μL 70% acetonitrile (ACN) and 5 μL of this solution used for the mass spectrometer-based analysis. The analysis was performed on a Q Exactive (Thermo Scientific) in polarity-switching mode with positive voltage 4.0 kV and negative voltage 4.0 kV. The mass spectrometer was coupled to an UltiMate 3000RSLC (Thermo Scientific) UHPLC system. Mobile phase A was 5 mM ammonium acetate (NH4AcO), pH 9.9, B was acetonitrile and the separation achieved on a Luna […] NH2 100 A column (150 × 2.0 mm, Phenomenex). The flow was 200 μL/min, and the gradient ran from 15% A to 95% A in 18 min, followed by an isocratic step for 9 min and re-equilibration for 7 min. Metabolites were detected and quantified as area under the curve based on retention time and accurate mass (≤ 3 p.p.m.) using the TraceFinder 3.1 (Thermo Scientific). Relative amounts of […]

CNCc1ccc(-c2cc(-c3nc(-c4ccc(S(=O)(=O)C(C)C)cc4)cnc3N)on2)cc1 [VE-822]
Glucose labeling, Tyr (C00082): 0.00% | Glucose labeling, Uric Acid (C00366): 0.00% | Relative level, Orotate: 0.7 | Glucose labeling, Lac (listed as V): 18.07% and 12.73% and 18.58% and 10.84% and 13.61% and 9.63% | Glucose labeling, Lys (listed as V): 0.00% (4×) and 1.11e-14% (2×) | Glucose labeling, Mal (listed as V): 21.43% and 21.55% and 21.63% and 20.66% and 20.63% and 19.36% | Glucose labeling, Met (listed as V): 0.00201% and 0.00233% and 0.002% and 0.0022% and 0.00164% and 0.00224% | Glucose labeling, N-Carbamoyl-L-aspartate (listed as V): 0.12% (3×) and 1.58% and 100.00% (2×) | Glucose labeling, NADP+ (listed as V): 0.00% (5×) and 100.00% | Glucose labeling, Nicotinamide (listed as V): 0.00% (4×) and -2.22e-14% and 1.11e-14% | Glucose labeling, Ornithine (listed as V): 0.12% (3×) and 0.10% and 0.0528% and 0.00133% | Glucose labeling, Orotate (listed as V): 100.00% (5×) and 0.0318% | Glucose labeling, Orotidine (listed as V): 33.66% and 31.88% and 29.83% and 33.19% and 33.56% and 35.92% | Glucose labeling, P-Choline (listed as V): 0.00204% (2×) and 0.00195% and 0.0016% and 0.00194% and 0.00159% | Glucose labeling, P-Ser (listed as V): 17.40% and 18.30% and 18.56% and 14.37% and 10.74% and 15.47% | Glucose labeling, Palmitate (listed as V): 0.0183% and 0.0339% and 0.00791% and 0.04% and 0.0649% and 0.00591% | Glucose labeling, Pantothenate (listed as V): 0.00% (5×) and 1.11e-14% | Glucose labeling, Pro (listed as V): 9.73% and 9.96% and 9.64% and 8.05% and 8.31% and 8.35% | Glucose labeling, Pro-OH (listed as V): 0.00141% and 0.00104% and 0.000977% and 0.00201% and 0.00147% and 0.00157% | Glucose labeling, R5P (listed as V): 100.00% (5×) and 87.46% | Glucose labeling, S7P (listed as V): 82.53% and 82.63% and 83.80% and 82.99% and 87.27% and 79.29% | Glucose labeling, SAM (listed as V): 61.24% and 62.78% and 63.01% and 60.62% and 59.88% and 60.86% | Glucose labeling, Ser (C00065) (listed as V): 11.13% and 10.40% and 10.89% and 9.46% and 9.59% and 9.87% | Glucose labeling, Shikimate (C00493) (listed as V): 0.00% (5×) and 1.11e-14% | Glucose labeling, Succ (C00042) (listed as V): 0.93% and 0.0737% (3×) and 0.000466% and 0.000404% | Glucose labeling, T (C00214) (listed as V): 0.47% and 0.23% and 0.34% and 0.00858% and 0.08% (2×) | Glucose labeling, Thymine (C00178) (listed as V): 0.000884% and 0.000908% and 0.01% and 0.02% (2×) and 0.000701% | Glucose labeling, Trp (C00078) (listed as V): 0.00% (4×) and -2.22e-14% and 1.11e-14% | Glucose labeling, Tyramine (C00483) (listed as V): 0.00% (4×) and -2.22e-14% and 1.11e-14% | Glucose labeling, UDP (C00015) (listed as V): 69.98% and 62.30% and 68.54% and 67.03% and 57.99% and 53.20% | Glucose labeling, UDP-Glc (C00029) (listed as V): 98.27% and 97.52% and 97.62% and 96.48% and 95.86% and 94.41% | Glucose labeling, UDP-GlcNAc (C00043) (listed as V): 91.42% and 92.87% (2×) and 89.85% and 89.76% and 89.80% | Glucose labeling, UMP (C00105) (listed as V): 70.24% and 69.75% and 64.97% and 37.55% and 64.64% and 60.30% | Glucose labeling, UTP (C00075) (listed as V): 73.32% and 70.31% and 75.59% and 75.28% and 69.74% and 72.15% | Glucose labeling, Uracil (C00106) (listed as V): 0.06% and 0.05% and 0.00305% and 0.0378% and 0.0737% (2×) | Glucose labeling, Urocanate (C00785) (listed as V): 0.00% (5×) and -2.22e-14% | Glucose labeling, Val (C00183) (listed as V): 0.00% (5×) and -2.22e-14% | Glucose labeling, Vit-C (C00072) (listed as V): 0.00% (5×) and -2.22e-14% | Glucose labeling, Xanthine (C00385) (listed as V): 0.12% (2×) and 0.06% and 0.0856% and 0.09% (2×) | Relative level, Lac (listed as V): 1.3 (2×) and 1.2 and 0.857 and 0.476 and 0.85 | Relative level, Leu/Ile (listed as V): 1.4 and 1.5 (2×) and 0.9 (2×) and 1.0 | Relative level, Lys (listed as V): 1.7 and 1.9 and 1.8 and 0.9 and 1.0 and 1.2 | Relative level, Mal (listed as V): 1.3 and 0.7 and 0.752 and 0.6 and 0.471 and 0.4 | Relative level, Met (listed as V): 1.5 (3×) and 0.9 (2×) and 1.0 | Relative level, N-Carbamoyl-L-aspartate (listed as V): 1.0 and 0.6 and 0.7 and 0.749 | Relative level, NAD+ (listed as V): 1.0 and 0.9 (2×) and 0.647 and 0.7 and 0.752 | Relative level, NADP+ (listed as V): 0.455 and 0.8 and 0.9 and 0.657 and 0.3 | Relative level, Nicotinamide (listed as V): 1.2 (2×) and 1.1 and 1.0 and 0.9 and 0.854 | Relative level, Ornithine (listed as V): 1.1 and 1.4 (2×) and 0.7 and 0.9 and 1.0 | Relative level, Orotidine (listed as V): 1.0 (3×) and 0.6 (2×) and 0.567 | Relative level, P-Choline (listed as V): 1.3 and 1.1 (2×) and 0.76 and 0.66 and 0.557 | Relative level, P-Creatine (listed as V): 1.7 and 0.9 (2×) and 0.7 and 1.5 and 1.2 | Relative level, P-EtA (listed as V): 1.1 and 0.7 and 0.6 and 1.7 and 0.744 and 0.5 | Relative level, P-Ser (listed as V): 1.0 (2×) and 1.1 and 0.37 and 0.234 and 0.273 | Relative level, PEP (listed as V): 0.435 and 0.082 | Relative level, Palmitate (listed as V): 0.9 (3×) and 1.1 and 1.2 and 1.0 | Relative level, Pantothenate (listed as V): 1.2 and 1.3 and 1.4 and 0.7 and 0.8 (2×) | Relative level, Phe (listed as V): 1.4 and 1.5 (2×) and 0.9 (2×) and 1.0 | Relative level, Pipecolate (listed as V): 1.6 and 1.9 and 1.8 and 0.9 (2×) and 1.2 | Relative level, Pro (listed as V): 1.3 (2×) and 1.4 and 0.851 and 0.9 (2×) | Relative level, Pro-OH (listed as V): 1.3 and 1.4 (2×) and 0.9 (3×) | Relative level, Pyr (listed as V): 2.1 and 3.2 and 1.3 and 0.7 and 1.1 and 6.3 | Relative level, R5P (listed as V): 3.5 and 1.8 and 2.1 and 1.2 and 0.468 and 0.53 | Relative level, S7P (listed as V): 3.0 and 1.6 and 2.7 and 1.2 and 0.9 and 0.6 | Relative level, SAM (listed as V): 1.6 and 1.7 (2×) and 0.9 and 1.1 (2×)
